Measured values reported in patent publication EP3925949A1, “AZIDO COMPOUNDS AND METHOD FOR MONITORING ACID CERAMIDASE ACTIVITY IN INTACT CELLS USING THEM” (Consejo Superior de Investigaciones Científicas (CSIC), priority 2020, dated 2021).

Legend:
[1] = test system: mitochondria; assay: Confocal co-localization of probe/CO-1 staining with Mitotracker; format: cell-based; conditions: A375/+Dox, RBM5-177 probe, FB1 100 µM 24 h or SOCLAC 5 µM 1 h, independent treatments
Method: Cells were seeded at 1 × 10^5 cells/mL on glass-bottom plates and allowed to adhere for 24 h. For golgi staining, cells were incubated with 40 µL/well of CellLight Golgi-RFP BacMam 2.0 for 24 h. Medium was replaced with fresh medium containing RBM5-177, RBM5-019, RBM2-37 or RBM2-31 (5 µM final concentration) and cells were incubated for 20 min at 37 °C. After this time, the medium was replaced with fresh medium containing CO-1 (1 µM final concentration), and cells were incubated for 10 min. Then cells were washed 3 times with DMEM for 5 min at 37 °C, 75 nM LysoTracker Red DND-99 or 75 nM Mitotracker in phenol red-free DMEM was added to stain lysosomes or mitochondria, and cells were kept in the incubator for microscope analysis. Staining was viewed with a Zeiss LSM 880 confocal microscope or Leica TCS SP8-Hyvolution. Image analysis was performed using Fiji software.^[7] To measure the Manders's and Pearson's coefficients a threshold including organelles and discarding the background was set. Co-localization coefficients were measured using the JaCoP plugin (S. Bolte et al. J. Microsc. 2006, 224, 213-232) on the different stacks of images (at least n=4) with each stack containing 3-10 cells.

[2] = target: T1, acid ceramidase (AC) (Homo sapiens, UniProt Q13510); assay: AC activity in intact cells by UPLC-HRMS quantification of RBM5-019 and reacylated products; format: cell-based; parameters: expressed in transfected cells; host or cells: A375/+Dox (overexpressing AC); conditions: A375/+Dox
T1 sequence (Q13510 143-395 limits assumed): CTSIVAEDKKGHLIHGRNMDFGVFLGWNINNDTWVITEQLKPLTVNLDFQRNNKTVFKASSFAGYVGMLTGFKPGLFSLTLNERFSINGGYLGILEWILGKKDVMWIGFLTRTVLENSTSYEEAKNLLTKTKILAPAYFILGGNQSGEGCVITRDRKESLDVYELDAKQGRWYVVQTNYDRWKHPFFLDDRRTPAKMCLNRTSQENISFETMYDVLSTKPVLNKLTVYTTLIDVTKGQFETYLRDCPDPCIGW
T1 sequence (Q13510 22-142 limits assumed): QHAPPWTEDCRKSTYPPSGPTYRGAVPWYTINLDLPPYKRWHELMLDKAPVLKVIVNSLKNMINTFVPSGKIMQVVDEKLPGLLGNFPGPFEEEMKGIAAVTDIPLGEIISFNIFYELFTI
Method: Cells were seeded at 5 × 10^5 cells/mL into 6 well plates (1 mL/well) and were allowed to adhere for 24 h. Medium was replaced with fresh medium containing RBM5-177, RBM5-019 or RBM2-37 (5 μM final concentration). After 30 min, medium was removed; cells were washed with 400 μL PBS and harvested with 400 μL Trypsin-EDTA and 600 μL of medium. NC recombinant enzyme, lysates from A375-AC overexpressing cells, MEF5 or microsomes from HeLa T-Rex ACER1-TET-ON and HeLa T-Rex ACER2-TET-ON cells stably overexpress ACER1 orACER2 respectively were incubated with RBM5-177 or RBM5-019 (10 μM final concentration) for 3 h in the corresponding ceramidase activity buffer. Cell pellets were resuspended with 100 μL of H2O and mixed with 750 μL of methanol: chloroform, 2:1. Samples were heated at 48°C overnight and next day, 75 μL of 1 M KOH in methanol were added, followed by 2 h incubation at 37°C. Afterwards, the saponification was neutralised with 75 μL of 1 M acetic acid and solvent was removed using a […] (Thermo Scientific). Sphingolipid extracts, fortified with internal standards (N-dodecanoylsphingosine, N-dodecanoylglucosylsphingosine, N-dodecanoylsphingosylphosphorylcoline and C17-sphinganine 0.2 nmol each) were solubilised in 150 μL of methanol. Samples were then centrifuged at 9,300 g for 3 min and 130 μL of the supernatant were injected to a Waters Aquity UPLC system connected to a Waters LCT Premier Orthogonal Accelerated Time of Flight Mass Spectrometer (Waters,Milford, MA, USA) operated in positive electrospray ionisation mode. Full scan spectra from 50 to 1500 Da were acquired and individual spectra were summed to produce data points each 0.2 s. Mass accuracy and reproducibility were maintained by using an independent reference spray by the LockSpray interference. The analytical column was a 100 mm x2.1 mm i.d., 1.7 μm C8 Acquity UPLC BEH (Waters). The two mobile phases were phase A: methanol/water/formic acid (74/25/1 v/v/v); phase B: methanol/formic acid (99/1 v/v), both also contained 5 mM ammonium formate. […]

effect on levels of RBM5-19 and reacylated products ([2]; SOCLAC 5 µM 1 h pre treatment, RBM5-177 5 µM 4 h (Fig. 6B)): dropped dramatically
Structure (SMILES): CCCCCCCCCCCCC/C=C/[C@@H](O)[C@H](CO)NC(=O)CCl [SOCLAC]
effect on mitochondria labelling [1]: mitochondria labelling was precluded | effect on formation of RBM5-19 and transacylated products ([2]; SOCLAC 5 µM 1 h, RBM5-177 5 µM 4 h (Fig. 4B)): precluded the formation of both RBM5-19 and transacylated products
